We go through one compound from patent US8742123B2, “HIV integrase inhibitors from pyridoxine” (TaiMed Biologics, Inc., priority 2008, dated 2014).

In one series the test system is wild type NL-4.3. Description: multi-cycle infection assay in MT-4 cells (MTT cytoprotection). The series is classed as cell-based, HIV-1. The following applies: Human immunodeficiency virus 1, MT4, 144 h; MT-4 cells, wild type NL-4.3, 6 days, MTT; read-out: EC50 (nM) multi-cycle. How it is done: The antiviral efficacies of the integrase inhibitor compounds of the invention were evaluated based on EC50 measures obtained from two different in vitro HIV infection assay using cultured MT-4 cells: (1) a multi-cycle infection where cells were infected with wild type NL-4.3) and (2) a single-cycle infection where the cells were infected with a luciferase-bearing, envelope defective (env-) NL-4.3 virus pseudotyped with HIV-1 env (HXBc2.
The incubation period for the multi-cycle infection assay was 6 days. Cell viability (cytoprotection) and EC50 were determined using the colorimetric MTT assay (A. J. Japour et al, Antimicrobial Agents and Chemotherapy, 37, 1095-1101, 1993 and R. Pauwels et al. Journal of Virological Methods, 20, 309-321, 1988).

Series [1] in a line: protein binding by Rapid Equilibrium Dialysis (RED), 10% FBS-RPMI. The series is classed as in vitro ADME. Conditions: bovine, 10% FBS-RPMI, 37° C. On the procedure: (§1) Protein binding was tested by Rapid Equilibrium Dialysis (RED) method (The RED (Rapid equilibrium Dialysis) Device inserts instruction manual. Pierce, Rockford Ill.). […] The red chamber was loaded with 0.3 mL of samples containing compounds. The white chamber contained 0.5 mL of D-PBS buffer only. The plate was incubated at 37° C. while shaking at 150 rpm for 5 hours. Aliquots from both chambers were analyzed by LC/MS/MS. The multi-cycle antiviral activity in the absence and presence of human serum was determined by p24 ELISA measurement after 6 days of NL4.3 virus infection.

Series [2] is described as follows: protein binding by Rapid Equilibrium Dialysis (RED), human serum. The series is classed as in vitro ADME. Conditions: human serum (100%), 37° C., 100% HS. How it is done: as §1
On the technique in general: In equilibrium dialysis only unbound substance equilibrates across the membrane.

The test system of another series is NL4.3 virus. Description: multi-cycle antiviral activity in absence and presence of human serum, p24 ELISA. The series is classed as cell-based, HIV-1. The following applies: for EC50: Human immunodeficiency virus 1, 144 h, p24 ELISA after 6 days. On the procedure: as §1
On the technique in general: In an ELISA, binding on a coated surface is turned into a signal by an enzyme label.

In a further series the target is T1, CYP2C9 (Homo sapiens, UniProt P11712).
T1 construct: the incubation medium contained 0.3 mg/mL human liver microsomes; from tissue; host or cells: human liver microsomes
T1 sequence (P11712 whole entry): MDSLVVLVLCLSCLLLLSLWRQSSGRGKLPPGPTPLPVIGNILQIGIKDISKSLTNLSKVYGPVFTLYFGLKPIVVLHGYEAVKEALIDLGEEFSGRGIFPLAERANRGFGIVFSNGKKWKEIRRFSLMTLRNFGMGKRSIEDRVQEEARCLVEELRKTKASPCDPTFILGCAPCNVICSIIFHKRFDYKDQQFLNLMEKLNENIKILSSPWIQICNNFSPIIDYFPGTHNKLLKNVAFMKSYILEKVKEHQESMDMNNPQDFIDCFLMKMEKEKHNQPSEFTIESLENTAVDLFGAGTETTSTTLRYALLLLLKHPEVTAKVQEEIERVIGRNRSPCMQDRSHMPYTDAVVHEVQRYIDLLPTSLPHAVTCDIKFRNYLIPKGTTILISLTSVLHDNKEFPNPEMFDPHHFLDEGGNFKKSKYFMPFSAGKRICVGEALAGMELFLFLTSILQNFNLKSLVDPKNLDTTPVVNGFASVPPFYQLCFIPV
The series can be described thus: human CYP inhibition in human liver microsomes. The series is classed as in vitro ADME. On the procedure: (§2) For the human CYP inhibition experiments, the incubation medium contained 0.3 mg/mL human liver microsomes, 100 mM phosphate buffer pH 7.4, 5 mM MgCl2, 1 mM EDTA. The respective substrates for CYP3A4, CYP2C9 and CYP2D6 were added at various concentrations in the presence or absence of the compounds tested. After pre-incubation, the reaction was initiated by the addition of NADPH at final concentration 1 mM. Incubation times were 10, 60 and 15 minutes for CYP3A4, CYP2C9 and CYP2D6, respectively (Walsky R L and Obach R S., Drug Metabolism and Disposition, 2004, 32, 647-660). GraphPad Prism software was used for data analysis.
A general note: Liver microsomes are a subcellular fraction often used to study metabolism.

A further series concerns the target T2, CYP3A4 (Homo sapiens, UniProt P08684).
T2 construct: the incubation medium contained 0.3 mg/mL human liver microsomes; from tissue; host or cells: human liver microsomes
The series can be described thus: human CYP inhibition in human liver microsomes. The series is classed as in vitro ADME. The following applies: CYP3A4 (printed CYP34A). How it is done: as §2

The nature of series [3]: human liver microsome stability. The series is classed as in vitro ADME. The following applies: human liver microsomes, pH 7.4, 1 μM compound. On the procedure:
After pre-incubation, the assay was started by the addition of 1 μM of compound. Samples were taken after 0, 15, 30, 60, 90 and 120 minutes of incubation (Fisher M B, Drug Metabolism and Disposition, 2000, 28, 560-566). GraphPad Prism software was used for data analysis. The results, showing that the compounds of the invention are metabolically stable in Human liver microsomes, are provided in Table 7 below.

Read-outs that look alike come from different tables or passages of the source.

T2 sequence (P08684 whole entry): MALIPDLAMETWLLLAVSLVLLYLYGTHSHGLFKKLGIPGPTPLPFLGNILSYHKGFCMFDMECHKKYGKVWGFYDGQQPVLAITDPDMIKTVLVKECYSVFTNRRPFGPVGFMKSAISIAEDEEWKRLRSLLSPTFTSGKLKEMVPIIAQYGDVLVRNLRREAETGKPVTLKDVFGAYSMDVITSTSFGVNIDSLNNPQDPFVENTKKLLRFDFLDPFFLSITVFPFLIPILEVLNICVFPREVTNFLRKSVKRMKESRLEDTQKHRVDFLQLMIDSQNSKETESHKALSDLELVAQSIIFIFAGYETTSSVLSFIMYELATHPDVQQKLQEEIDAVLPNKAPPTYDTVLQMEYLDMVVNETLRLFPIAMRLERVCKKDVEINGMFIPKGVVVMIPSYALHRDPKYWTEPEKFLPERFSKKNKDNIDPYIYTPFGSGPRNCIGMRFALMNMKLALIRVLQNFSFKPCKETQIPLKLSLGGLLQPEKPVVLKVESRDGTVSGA

In general, EC50 refers to the concentration that produces a half-maximal response. In general, fraction unbound refers to the share of the substance not bound to proteins or other matrix. Read a high fraction unbound as much free substance. One may read the Ki as a measure of affinity in units of concentration, obtained from inhibition or displacement. A higher Ki goes with lower affinity. In the case of `O=C(NCc1ccc(F)cc1)c1cnc(C(=O)NOCc2ccccc2)c(OCc2ccccc2)c1CO` [Example 1, N^2,3-bis(benzyloxy)-N^5-(4-fluorobenzyl)-4-(hydroxymethyl)pyridine-2,5-dicarboxamide], the EC50 is more than 10000 nM in the series on wild type NL-4.3; 0.481 µM with NL4.3 virus (10% FBS + 40% HS, read-out: EC50 (uM) 10% FBS + 40% HS); 0.227 µM in the series with NL4.3 virus (10% FBS, read-out: EC50 (uM) 10% FBS). Besides, the values for the fraction unbound at 5 hours, 1 uM in series [1] and in series [2] were 0.475 and 0.11, respectively. In the series on NL4.3 virus (EC50 with 40% HS versus 10% FBS), the “Fold-change with HS” value is listed as 2.1. Besides, the Ki at CYP2C9 worked out at 63.6 µM; on CYP3A4, 5.1 µM. Moreover, the half-life at 1 μM in series [3] (1 mM NADPH and 1 mM UDPGA, read-out: Half-life in HLM (hrs) NADPH/UDPGA (converted)) is 3.9 h; in series [3] (1 mM NADPH, read-out: Half-life in HLM (hrs) NADPH (converted)), 7.4 h; in series [3] (1 mM UDPGA, read-out: Half-life in HLM (hrs) UDPGA (converted)), 19.7 h.
